Data on two compounds can be found in patent US7049138B2, “Epitope-tagged beta-amyloid precursor protein and DNA encoding the same” (Bristol-Myers Squibb Company, priority 1999, dated 2006).

The subject of this assay is HA 11 A-beta (1-40) accumulation in HEK 293/HA 11 beta-APP 695 cells. Nature of the assay: Accumulation of HA 11 A-beta (1-40) in HEK 293/HA 11 beta-APP 695 conditioned medium, position 40-specific ELISA. It counts as cell-based, human. The settings on record: 96-well, serum-free medium with 0.2% BSA, 16 hours, dose-response, versus DMSO vehicle. As to the method:
HEK 293/HA 11 beta-APP 695 cells were plated at confluence in 96-well plates and the indicated dose-response of either MDL 28170 (panel A), or Brefeldin A (panel B) was added for 16 hours. The accumulation of HA 11 A-beta (1-40) (position 40-specific antibody; QCB) was determined as in FIG. 5. Results are expressed as percentage inhibition of HA 11 A-beta (1-40) accumulation in comparison to wells incubated with vehicle (dimethyl sulfoxide, DMSO) alone.
Panel A: Immulon 2 microtiter wells were coated with mAB anti-HA 11 (5 μg/mL in PBS, 4° C., overnight), washed with PBS and blocked with 5% BSA in PBS. […] The change of absorbance of duplicate wells was determined at […] and results corrected for binding of antibodies to wells in the absence of peptide. […]
HEK 293/HA 11 beta-APP 695 cells were plated in 96-well tissue culture dishes in serum-free medium containing 0.2% BSA (1×10^6 cells/cm^2). The conditioned medium was harvested at the indicated times and analyzed for the presence of HA 11 A-beta position 40, as in example 4. HA 11 A-beta polypeptides ending at position 42 were detected in a similar ELISA system. […] Bound HA 11 A-beta 42 was detected with biotin-labeled mAB 108 (specific for the neo-epitope generated upon cleavage of beta-APP by […]), followed by HRP-labeled streptavidin and TMB substrate. […]
In general terms: ELISA stands for enzyme-linked immunosorbent assay.

With `C[C@H]1CCC/C=C/[C@@H]2C[C@H](O)C[C@H]2[C@H](O)/C=C/C(=O)O1` [brefeldin A, Brefeldin A], the “HA 11 A-beta accumulation in conditioned medium” value is “decrease in the HA 11 A-beta accumulation”.

MDL 28170: the “HA 11 A-beta accumulation in conditioned medium” value is “decrease in the HA 11 A-beta accumulation”.
